Laboratory results reported in patent US12690589B2, “Herbicidal compositions comprising pyroxasulfone” (BASF SE, priority 2024, dated 2026).

How the values were obtained:
Experiment in all cases: Post-emergence application in field trials, herbicidal activity (damage scale 0 to 100%)
Assay type in all cases: in vivo
[1] = test system: Hordeum vulgare (HORVW); conditions: HORVW, growth stage 23-29, height 20-25 cm
Protocol: (§1) In the examples below, using the method of S. R. Colby (1967) “Calculating synergistic and antagonistic responses of herbicide combinations”, Weeds 15, p. 22ff., the value E, which is expected if the activity of the individual active compounds is only additive, was calculated:
(§2) [formula] • wherein • X=percent activity using active herbicide A at an application rate a; • Y=percent activity using active herbicide B (e.g. pyroxasulfone) at an application rate b; • E=expected activity (in %) by A+B at application rates a+b.
(§3) For 3-component mixtures the synergistic response was calculated as described in: Ferry, Nancy; Stanley, Bruce H.; and Armel, Gregory (2005). “DESIGN AND ANALYSIS OF BIOLOGICAL ASSAYS OF MIXTURES,” Conference on Applied Statistics in Agriculture. https://doi.org/10.4148/2475-7772.1133. According to this publication, the Colby calculation can be generalized to a third mixing partner, Z, employing the following formula: […]
(§4) If the value found experimentally is higher than the value E calculated according to Colby, a synergistic effect is present.
(§5) On field test sites, natural weed infestation or seeded weeds were treated post-emergence of the weeds.
(§6) In the field trials, the weeds were treated as indicated below.
(§7) In the following experiments, the herbicidal activity for the individual herbicidal compositions (solo and mixture applications) was assessed at the indicated days after treatment (DAT). The assessments for the damage on undesired weeds caused by the composition was carried out using a scale from 0 to 100%, compared to the untreated control plants. Here, 0 means no damage and 100 means complete destruction of the plants.
(§8) Herbicide A-1 (342 g/l) and pyroxasulfone (500 g/l) were, together with addition of 0.25 v/v % MSO (methylated seed oil) as adjuvant, formulated in 200 l/ha water as distribution medium and sprayed with commercial flat fan nozzles.
(§9) Herbicide A-1 (342 g/l), pyroxasulfone (500 g/l) and trifludimoxazin (500 g/l) were, together with addition of 0.25 v/v % MSO (methylated seed oil) as adjuvant, formulated in 200 l/ha water as distribution medium and sprayed with commercial flat fan nozzles.
(§10) Herbicide A-1 (342 g/I), pyroxasulfone (500 g/l) and glyphosate-isopropylammonium (356 g/l) were, together with addition of 0.25 v/v % MSO (methylated seed oil) as adjuvant, formulated in 200 l/ha water as distribution medium and sprayed with commercial flat fan nozzles.
(§11) Herbicide A-1 (342 g/l), pyroxasulfone (500 g/l) and glufosinate-P-ammonium (211 g/l) were, together with addition of 0.25 v/v % MSO (methylated seed oil) as adjuvant, formulated in 200 l/ha water as distribution medium and sprayed with commercial flat fan nozzles.
(§12) Herbicide A-1 (342 g/l), pyroxasulfone (500 g/l) and 2,4-D-choline (456 g/l) were, together with addition of 0.25 v/v % MSO (methylated seed oil) as adjuvant, formulated in 200 l/ha water as distribution medium and sprayed with commercial flat fan nozzles.

[2] = test system: Digitaria sanguinalis (DIGSA)
Protocol: as §1, §2, §3, §4, §5, §6, §7, §8, §9, §10, §11, §12

[3] = test system: Echinochloa crus-galli (ECHCG)
Protocol: as §1, §2, §4, §5, §6, §7
Herbicide A-1 (50 g/l) and pyroxasulfone (85% WG) were, together with addition of 0.5% MSO (methylated seed oil) as adjuvant, formulated in water as distribution medium (water volume 200 l/ha) and sprayed with commercial flat fan nozzles.

What does the source list for Cn1nc(C(F)(F)F)c(CS(=O)(=O)C2=NOC(C)(C)C2)c1OC(F)F [B, pyroxasulfone]?
% Herbicidal activity ([1]; B 70 g ai/ha, 21 DAT, Table 4.4): 0%; % Herbicidal activity ([1]; B 70 g ai/ha, 28 DAT, Table 4.5): 0%; % Herbicidal activity ([1]; B 90 g ai/ha, 7 DAT, Table 4.2): 0%; % Herbicidal activity ([1]; B 90 g ai/ha, 21 DAT, Table 4.4): 0%; % Herbicidal activity ([1]; B 90 g ai/ha, 28 DAT, Table 4.5): 0%; % Herbicidal activity ([2]; 7 DAT, stage 22, height 10-15 cm, g ai/ha A-1 12.5, B 70, C-4 12.5): 0%; % Herbicidal activity ([2]; 7 DAT, stage 22, height 10-15 cm, g ai/ha A-1 18, B 70, C-4 12.5): 0%; % Herbicidal activity ([2]; 7 DAT, stage 22, height 10-15 cm, g ai/ha A-1 18, B 70, C-8 840): 0%; % Herbicidal activity ([2]; 7 DAT, stage 22, height 10-15 cm, g ai/ha A-1 18, B 70, C-12 252): 0%; % Herbicidal activity ([2]; 7 DAT, stage 22, height 10-15 cm, g ai/ha A-1 18, B 90, C-4 12.5): 0%; % Herbicidal activity ([2]; 7 DAT, stage 22, height 10-15 cm, g ai/ha A-1 18, B 90, C-8 840): 0%; % Herbicidal activity ([2]; 7 DAT, stage 22, height 10-15 cm, g ai/ha A-1 18, B 90, C-12 252): 0%; % Herbicidal activity ([2]; 21 DAT, stage 22, height 10-15 cm, g ai/ha A-1 12.5, B 70, C-4 12.5): 0%; % Herbicidal activity ([2]; 21 DAT, stage 22, height 10-15 cm, g ai/ha A-1 18, B 70, C-4 12.5): 0%; % Herbicidal activity ([2]; 21 DAT, stage 22, height 10-15 cm, g ai/ha A-1 18, B 70, C-12 252): 0%; % Herbicidal activity ([2]; 21 DAT, stage 22, height 10-15 cm, g ai/ha A-1 18, B 90, C-4 12.5): 0%; % Herbicidal activity ([2]; 21 DAT, stage 22, height 10-15 cm, g ai/ha A-1 18, B 90, C-12 252): 0%; % Herbicidal activity ([2]; 42 DAT, stage 22, height 10-15 cm, g ai/ha A-1 12.5, B 70): 0%; % Herbicidal activity ([2]; 42 DAT, stage 22, height 10-15 cm, g ai/ha A-1 12.5, B 70, C-4 12.5): 0%; % Herbicidal activity ([2]; 42 DAT, stage 22, height 10-15 cm, g ai/ha A-1 18, B 70): 0%; % Herbicidal activity ([2]; 42 DAT, stage 22, height 10-15 cm, g ai/ha A-1 18, B 70, C-4 12.5): 0%; % Herbicidal activity ([2]; 42 DAT, stage 22, height 10-15 cm, g ai/ha A-1 18, B 70, C-12 252): 0%; % Herbicidal activity ([2]; 42 DAT, stage 22, height 10-15 cm, g ai/ha A-1 18, B 90): 0%; % Herbicidal activity ([2]; 42 DAT, stage 22, height 10-15 cm, g ai/ha A-1 18, B 90, C-4 12.5): 0%; % Herbicidal activity ([2]; 42 DAT, stage 22, height 10-15 cm, g ai/ha A-1 18, B 90, C-12 252): 0%; % Herbicidal activity ([2]; DIGSA, growth stage 22, height 10-15 cm, B 70 g ai/ha, 7 DAT, Table 4.1): 0%; % Herbicidal activity ([2]; DIGSA, growth stage 22, height 10-15 cm, B 70 g ai/ha, 21 DAT, Table 4.3): 0%; % Herbicidal activity ([2]; DIGSA, growth stage 22, height 10-15 cm, B 90 g ai/ha, 7 DAT, Table 4.1): 0%; % Herbicidal activity ([2]; DIGSA, growth stage 22, height 10-15 cm, B 90 g ai/ha, 21 DAT, Table 4.3): 0%; % Herbicidal activity ([2]; Table 8.1, 7 DAT, stage 22, height 10-15 cm, g ai/ha A-1 18, B 70, C-12 1066): 0%; % Herbicidal activity ([2]; Table 8.2, 21 DAT, stage 22, height 10-15 cm, g ai/ha A-1 18, B 70, C-12 1066): 0%; % Herbicidal activity ([2]; Table 8.4, 42 DAT, stage 22, height 10-15 cm, g ai/ha A-1 18, B 70, C-12 1066): 0%; % Herbicidal activity ([3]; 7 DAT, stage 23-30, height 15-20 cm, g ai/ha A-1 12.5, B 70, C-12 252): 10%; % Herbicidal activity ([3]; 21 DAT, stage 23-30, height 15-20 cm, g ai/ha A-1 12.5, B 70, C-12 252): 10%; % Herbicidal activity ([3]; 28 DAT, stage 23-30, height 15-20 cm, g ai/ha A-1 12.5, B 70, C-12 252): 10%; % Herbicidal activity ([3]; ECHCG, height 20-25 cm, B 120 g ai/ha, 21 DAT, Table 2.3): 0%; % Herbicidal activity ([3]; Table 8.2, 21 DAT, stage 23-30, height 15-20 cm, g ai/ha A-1 18, B 70, C-12 1066): 0%; % Herbicidal activity ([3]; Table 8.2, 21 DAT, stage 23-30, height 15-20 cm, g ai/ha A-1 18, B 90, C-12 1066): 0%; % Herbicidal activity ([3]; Table 8.3, 28 DAT, stage 23-30, height 15-20 cm, g ai/ha A-1 18, B 70, C-12 1066): 0%; % Herbicidal activity ([3]; Table 8.3, 28 DAT, stage 23-30, height 15-20 cm, g ai/ha A-1 18, B 90, C-12 1066): 0%
